Test results published in US7214714B2, “20-hydroxyeicosatetraenoic acid production inhibitors” (Taisho Pharmaceutical Co. Ltd., priority 2001, dated 2007).

What was measured:
[1] = target: 20-HETE-Producing Enzyme derived from Human Renal Microsome; assay: Inhibitory action to 20-HETE-producing enzyme derived from human renal microsome; assay type: biochemical; settings: human renal microsome fraction, tritium-arachidonic acid substrate, NADPH, 37° C., 1.5 hours, pH 7.4; read-out: IC50 (inhibition of 20-HETE production)
Experimental: Inhibitory Action to 20-HETE-Producing Enzyme derived from Human Renal Microsome
With regard to the compounds listed in the above table, their inhibitory actions to 20-HETE production were tested.
This test was carried out in accordance with a method mentioned in J. Pharmacol. Exp. Ther., volume 268, page 474 (1994).
A solution of the test compound adjusted to 1 μM using DMSO was added to a 50 mM of 3-morpholinopropanesulfonic acid buffer (MOPS) (pH 7.4) containing 5 mM of magnesium chloride and 1 mM of sodium ethylenediaminetetraacetate (EDTA), then human renal microsome fraction (Human Cell Culture Center, Anatomic Gift Foundation), [5,6,8,9,11,12,15]tritium-arachidonic acid and NADPH were added thereto as an enzymatic source, a substrate and a coenzyme, respectively and reaction was carried out at 37° C. for 1.5 hours. Formic acid was added to the reaction solution to stop the reaction and then acetonitrile was added thereto (final concentration: 50%). Amount of 20-HETE produced thereby was measured using a high performance liquid chromatography equipped with a radioactive substance detector having an ODS column (Biosil C18; manufactured by Biorad).
Amount of 20-HETE produced when no compound was added was defined as 100% and the concentration of the compound when production of 20-HETE was inhibited to an extent of 50% upon addition of a compound (IC50 value) was calculated.

Row | SMILES | melting point | IC50 [1] [nM]
1 | O/N=C/Nc1ccc(N2CCSCC2)c(F)c1 [Compound 2] | 141 to 142 °C (dec.) | 3.2
2 | O/N=C/Nc1ccc(N2CCSCC2)c(Cl)c1 [Compound 3, N-hydroxyl-N′-(3-chloro-4-thiomorpholinophenyl)formamidine] | 137 to 138.5 °C | 3.6
3 | O/N=C/Nc1ccc(N2CCSCC2)c(Br)c1 [Compound 4] | 149 to 151 °C | 2.3
4 | CC1CN(c2ccc(N/C=N/O)cc2Cl)CC(C)O1 (stereo not drawn) [Compound 9] | 163 to 164 °C (dec.) | 46.9
5 | O/N=C/Nc1ccc(N2CC=CC2)c(Cl)c1 [Compound 11] | 118 to 121 °C | 12.5
6 | O/N=C/Nc1ccc(N2CC=CC2)c(Br)c1 [Compound 12] | – | 16
7 | O/N=C/Nc1ccc(N2CC=CCC2)c(F)c1 [Compound 15] | 129 to 130 °C | 3.9
8 | O/N=C/Nc1ccc(N2CC=CCC2)c(C(F)(F)F)c1 [Compound 19] | 136.5 to 138 °C | 18
9 | Cc1cc(N2CC=CCC2)ccc1N/C=N/O [Compound 20] | 146 to 149 °C | 663
10 | O/N=C/Nc1ccc(N2CCCCCC2)c(C(F)(F)F)c1 [Compound 26] | 127 to 128.5 °C | 25.2
11 | Cc1cc(N2CCCC3CCCCC32)ccc1N/C=N/O (stereo not drawn) [Compound 46] | 154 to 156 °C | 33
12 | OCCC1CCN(c2ccc(N/C=N/O)cc2F)CC1 [Compound 55] | 172 to 176 °C | 34.2
13 | Cc1cc(N2CCC(CCO)CC2)ccc1N/C=N/O [Compound 58] | 152 to 154 °C | 31.2
14 | CCN(CC)C(=O)C1CCCN(c2ccc(N/C=N/O)cc2C(F)(F)F)C1 (stereo not drawn) [Compound 64] | 150 to 156 °C | 19.4
15 | CN1CCN(c2ccc(N/C=N/O)cc2Cl)CC1 [Compound 68] | 188 to 189 °C | 107
16 | CCN1CCN(c2ccc(N/C=N/O)cc2)CC1 [Compound 72] | 220 to 222 °C | 39.2
17 | CCN1CCN(c2ccc(N/C=N/O)cc2F)CC1 [Compound 73] | 197 to 200 °C | 37.2
18 | CCN1CCN(c2ccc(N/C=N/O)cc2Cl)CC1 [Compound 74] | 207 to 209 °C | 73.2
19 | CCN1CCN(c2ccc(N/C=N/O)cc2Br)CC1 [Compound 75] | 204.5 to 206.5 °C | 154
20 | CCN1CCN(c2ccc(N/C=N/O)cc2C(F)(F)F)CC1 [Compound 77] | 158 to 159 °C | 509
21 | Cl.OCCN1CCN(c2ccc(N/C=N/O)cc2F)CC1 [Compound 80] | 180 to 182 °C (dec.) | 45.4
22 | Cl.OCCN1CCN(c2ccc(N/C=N/O)cc2Cl)CC1 [Compound 81] | 200 to 202 °C (dec.) | 23.3

Row | SMILES | melting point | IC50 [1] [nM]
23 | OCCN1CCN(c2ccc(N/C=N/O)cc2Br)CC1 [Compound 82] | 190 to 192 °C (dec.) | 44
24 | Cl.O/N=C/Nc1ccc(N2CCN(CCN3CCCC3)CC2)c(F)c1 [Compound 93] | 205 °C (dec.) | 135
25 | Cl.O/N=C/Nc1ccc(N2CCN(CCN3CCCC3)CC2)c(Cl)c1 [Compound 94] | 161 to 163 °C | 222
26 | O/N=C/Nc1ccc(N2CCN(CCN3CCCC3)CC2)c(Br)c1 [Compound 95] | 163 to 165 °C | 75.8
27 | Cl.O/N=C/Nc1ccc(N2CCN(CCN3CCCC3)CC2)c(C(F)(F)F)c1 [Compound 96] | 229 to 231 °C (dec.) | 1530
28 | Cc1cc(N2CCN(CCN3CCCC3)CC2)ccc1N/C=N/O.Cl [Compound 97] | 196 to 198 °C (dec.) | 758
29 | Cl.O=C(CN1CCN(c2ccc(N/C=N/O)cc2Cl)CC1)N1CCOCC1 [Compound 100] | 110 to 114 °C | 36.3
30 | O=C(CN1CCN(c2ccc(N/C=N/O)cc2Br)CC1)N1CCOCC1 [Compound 101] | – | 20.8
31 | O=C(CN1CCN(c2ccc(N/C=N/O)cc2C(F)(F)F)CC1)N1CCOCC1 [Compound 103] | 75 to 77 °C | 21.4
32 | Cl.O/N=C/Nc1ccc(N2CCN(C3CCCCC3)CC2)c(F)c1 [Compound 106] | 207 °C (dec.) | 105
33 | O/N=C/Nc1ccc(N2CCN(C3CCCCC3)CC2)c(Cl)c1 [Compound 107] | – | 41.9
34 | Cl.O/N=C/Nc1ccc(N2CCN(C3CCCCC3)CC2)c(Br)c1 [Compound 108] | 222 to 223 °C (dec.) | 293
35 | O/N=C/Nc1ccc(N2CCN(C3CCCCC3)CC2)c(C(F)(F)F)c1 [Compound 110] | 93 to 96 °C | 531
36 | Cc1cc(N2CCN(C3CCCCC3)CC2)ccc1N/C=N/O.Cl [Compound 111] | 230 to 232 °C (dec.) | 70.8
37 | COCCN(CCOC)c1ccc(N/C=N/O)cc1Cl [Compound 119] | 95 to 96.5 °C | –
38 | Cl.O/N=C/Nc1ccc(N2CCN(C3CCCCC3)CC2)nc1 [Compound 123] | 224 to 226 °C (dec.) | 90.6
39 | CC(=O)N1CCN(c2ccc(N/C=N/O)cn2)CC1 [Compound 129] | 191 to 192 °C (dec.) | 8.3
40 | O/N=C/Nc1ccc(N2CCN(c3ccccn3)CC2)c(Cl)c1 [Compound 131] | 94 to 96 °C | 3.5
41 | OCCC1CCN(c2ccc(N/C=N/O)cn2)CC1 [Compound 132] | 151 to 153 °C | 37.3
42 | COCCN(CCOC)c1ccc(N/C=N/O)cc1 [Compound 133] | 97 to 98 °C | 340
43 | CCOC(=O)C1CCN(c2ccc(N/C=N/O)cc2Cl)CC1 [Compound 134] | 135 to 138 °C (dec.) | 4

More lines, now with the values ahead:

Row | melting point | IC50 [1] [nM] | SMILES
44 | 138 to 141 °C | – | O/N=C/Nc1ccc(N2CCSCC2)cc1 [Compound 1]
45 | 135 to 137.5 °C | 2.2 | O/N=C/Nc1ccc(N2CC=CCC2)c(Cl)c1 [Compound 16]
46 | 112 to 115 °C | 2.1 | O/N=C/Nc1ccc(N2CCCCCC2)c(F)c1 [Compound 22]
47 | 113 to 114 °C | 2.2 | O/N=C/Nc1ccc(N2CCCCCC2)c(Cl)c1 [Compound 23]
48 | 103.5 to 105 °C | 4.2 | O/N=C/Nc1ccc(N2CCCCCC2)c(Br)c1 [Compound 24]
49 | 170 to 173 °C | 10.2 | O/N=C/Nc1ccc(N2CCCCCCC2)cc1 [Compound 27]
50 | 137 to 139 °C | 5.7 | O/N=C/Nc1ccc(N2CCCCCCC2)c(F)c1 [Compound 28]
51 | 157 to 158.5 °C | 3.6 | O/N=C/Nc1ccc(N2CCC3(CC2)OCCO3)cc1 [Compound 33]
52 | 165 to 167 °C | 7 | O/N=C/Nc1ccc(N2CCC3(CC2)OCCO3)c(F)c1 [Compound 34]
53 | 174 to 176 °C | 5 | O/N=C/Nc1ccc(N2CCC3(CC2)OCCO3)c(Cl)c1 [Compound 35]
54 | 147 to 150 °C | 4.3 | Cc1cc(N2CCC3(CC2)OCCO3)ccc1N/C=N/O [Compound 39]
55 | 159 to 161 °C | 3.2 | O/N=C/Nc1ccc(N2CCC(O)CC2)c(F)c1 [Compound 48]
56 | 93 to 97 °C | 3.4 | O/N=C/Nc1ccc(N2CCC(O)CC2)c(Cl)c1 [Compound 49]
57 | 186 to 189 °C | 34.7 | OCCC1CCN(c2ccc(N/C=N/O)cc2)CC1 [Compound 54]
58 | 170 °C (dec.) | 71.9 | Cl.OCCN1CCN(c2ccc(N/C=N/O)cc2)CC1 [Compound 79]
59 | 188 to 190 °C (dec.) | 962 | CN(C)CCN1CCN(c2ccc(N/C=N/O)cc2)CC1.Cl [Compound 86]
60 | 167 to 169 °C (dec.) | 69 | Cl.O=C(CN1CCN(c2ccc(N/C=N/O)cc2)CC1)N1CCOCC1 [Compound 98]
61 | – | 14.8 | O/N=C/Nc1ccc(N2CCN(C3CCCCC3)CC2)cc1 [Compound 105]
62 | – | 215 | O/N=C/Nc1ccc(N2CCOCC2)nc1 [Compound 127, N-[2-(morpholino)pyridine-5-yl]-N′-hydroxyformamidine]
63 | 172 to 174 °C | – | O/N=C/Nc1ccc(N2CCOCC2)nc1 [Compound 128]
64 | 189 to 190 °C (dec.) | 46.1 | COc1cc(N2CCOCC2)ccc1N/C=N/O [Compound 130]
